Entries after “also recorded” stand apart in the source; their conditions may differ.
What was measured:
[1] = tested on: C57Bl/6 mouse bone marrow derived macrophages; type: cell-based
[2] = Procedure: The objectives of this study were to determine potential toxic effects of SB 44 following daily oral dose administration for 14 days, and to evaluate the genotoxicity of SB 44 as determined by micronucleus evaluation. Male and female Sprague-Dawley rats were administered SB 44 daily at doses of 50, 200 and 500 mg/kg/day for 14 consecutive days. […] Micronucleus evaluations were performed to determine the potential genotoxicity of SB 44. Necropsies were performed on Day 15 for rats in the main study group and on Day 28 for rats in the recovery group.
[3] = human liver S9 fractions
Procedure: SB 44 (10 μM) was incubated with a mix containing S9 fraction (pooled from human) (1 mg/ml), NADPH (1.3 mM) UDPGA (5 mM), Alamethicin (10 μg/ml) in 1 ml of 1×PBS buffer. S-(5′-adenosyl)-L-methionine iodide (0.1 mM), adenosine 3′-phosphate 5′-phosphosulfate lithium salt hydrate (0.1 mM) and acetyl CoA (1 mM). The metabolite samples were evaluated by HPLC and LC/MS analysis.

[4] = tested on: IRF3-luciferase reporter gene; test: IRF3-luciferase reporter induction in HLE A549 cells (primary assay for NOD2 activation); type: cell-based, human; details: 12 h incubation
Procedure: The evaluation of SMNH compounds for NOD2 activation was conducted by primary, secondary, and tertiary assays. In the primary assays, SMNH compounds were tested for the induction of IRF3 expression in HLE A549 cells, which are known to endogenously express NOD2. […] SB 44, a mixture of two isomers Rp and Sp, is a prodrug of SB 40. SB 1B—the Rp isomer of SB 44 and is shown as SB 44-1 in the FIGS. 1-2.
IRF3-luciferase transfected cells were incubated with either DMSO only (UT) or SMNH compounds (μM). Following 12 h incubation, luciferase activity was measured using Dual-Luciferase Reporter Assay System (Promega) according to the manufacturer's protocol. Transfection efficiency was normalized by measuring the expression of renilla Luciferase. Luciferase units (i.e., fold induction) were measured by standard methodology (mean±standard deviation; 3 independent experiments). The results are depicted in FIG. 1.

[5] = tested on: MHC-II; type: cell-based, mouse
[6] = tested on: peripheral blood mononuclear cells (PBMCs); test: Multiplex assay for 28 cytokines in PBMCs; type: cell-based, human; details: up to 50 μM
[7] = tested on: MDBK, Vero, and HFF cell lines; test: in vitro; details: cell line not specified (table footnote)
Procedure: (§1) SB 44 was subjected to cytotoxicity evaluation against a panel of cell lines including Madin-Darby bovine kidney (MDBK), Vero, and HFF (human foreskin fibroblasts) to determine their CC50. Standard Microculture Tetrazolium Assay (MTT) assays were performed in 96-well plates using MDBK, Vero, and HFF cell lines (obtained from American Type Cell Collection). Controls included the nucleoside analogs 3TC, AZT, and ddC, as well as media without drugs. SDS was used as a positive cytotoxic control. All prodrugs were tested in triplicate at concentrations of 100, 300, and 1000 μM. Following a 24-hour incubation of cells with the test substance, the MTT assay was carried out.
(§2) Standard MTT assays were performed in 96-well plates using the Promega CellTiter96 Non-radioactive Cell Proliferation Assay Kit in conjunction with a 96-well Plate Reader (ThermoMax, Molecular devices), and MDBK, Vero, and HFF cell lines (obtained from ATCC). Several controls were employed including the nucleoside analogs 3TC, AZT, and ddC, as well as, media without drugs. SDS was used as a positive cytotoxic control. The compounds were tested in triplicate at concentrations of 100, 300, and 1000 μM. Following a 24-hour incubation of cells with the test substance, the MTT assay was carried out.

[8] = tested on: M. tuberculosis; parameters: species or system C57Bl/6 mice; details: mouse, in vivo
[9] = target: T1, NOD2 (Homo sapiens, UniProt Q9HC29); test: IRF3-luciferase assay in HEK 293 cells transfected with NOD2; type: cell-based; details: HEK 293 transfected with NOD2, pcDNA and IRF3-luciferase; 1 μM; 12 h
T1 construct: expressed in transfected cells; host or cells: HEK 293
T1 sequence (Q9HC29 whole entry, species assumed): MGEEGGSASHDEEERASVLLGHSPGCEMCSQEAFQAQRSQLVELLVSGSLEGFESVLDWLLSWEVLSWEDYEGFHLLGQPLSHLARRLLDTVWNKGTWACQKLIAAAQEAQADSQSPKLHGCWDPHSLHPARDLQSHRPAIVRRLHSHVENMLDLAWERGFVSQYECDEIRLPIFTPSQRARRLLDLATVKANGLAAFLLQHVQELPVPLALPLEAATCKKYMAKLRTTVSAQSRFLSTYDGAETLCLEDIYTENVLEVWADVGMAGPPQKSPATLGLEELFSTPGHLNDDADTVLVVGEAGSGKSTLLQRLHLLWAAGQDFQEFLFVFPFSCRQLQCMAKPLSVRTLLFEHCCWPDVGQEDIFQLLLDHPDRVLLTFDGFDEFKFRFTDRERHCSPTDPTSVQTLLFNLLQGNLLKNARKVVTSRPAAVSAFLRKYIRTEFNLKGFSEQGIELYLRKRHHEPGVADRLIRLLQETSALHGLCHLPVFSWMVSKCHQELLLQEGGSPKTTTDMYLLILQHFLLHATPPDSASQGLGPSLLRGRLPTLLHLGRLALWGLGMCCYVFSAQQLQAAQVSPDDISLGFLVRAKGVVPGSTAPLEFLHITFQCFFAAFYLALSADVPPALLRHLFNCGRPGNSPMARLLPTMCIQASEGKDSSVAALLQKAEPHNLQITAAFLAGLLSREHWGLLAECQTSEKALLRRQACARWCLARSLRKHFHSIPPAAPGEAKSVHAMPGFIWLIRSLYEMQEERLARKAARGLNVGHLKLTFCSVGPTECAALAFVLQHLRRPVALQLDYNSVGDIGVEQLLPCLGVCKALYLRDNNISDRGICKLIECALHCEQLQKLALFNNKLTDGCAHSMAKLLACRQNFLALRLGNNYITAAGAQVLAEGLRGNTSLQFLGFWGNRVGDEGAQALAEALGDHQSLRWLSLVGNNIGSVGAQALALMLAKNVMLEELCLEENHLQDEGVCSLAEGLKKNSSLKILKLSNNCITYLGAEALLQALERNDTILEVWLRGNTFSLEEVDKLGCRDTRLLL
Procedure: HEK 293 cells were transfected with NOD2, pcDNA and IRF3-luciferase. The cells were then incubated with ssRNA (0.5 mg/ml) or SMNH compounds (1 μM). Following 12 h incubation, Luciferase activity was measured as described previously. The luciferase assay results are presented as mean±S.D. from three independent experiments (detailed materials and methods employed in these assays, see: ref (28). The results are depicted in FIG. 2.

[10] = tested on: RIG-I and NOD2; type: cell-based; details: receptor-deficient cells, exogenous RIG-I and NOD2
[11] = tested on: PBMCs; type: cell-based
[12] = in vitro; details: bovine (MDBK), African green monkey (Vero), human (HFF)
Procedure: as §1, §2

[13] = tested on: interferon-β (IFN-β); test: IFN-β production from human lung epithelial A549 cells; type: cell-based
[14] = tested on: RIG-I and NOD2; test: Induction of responder genes RIG-I and NOD2; type: cell-based
[15] = tested on: M. tuberculosis; parameters: species or system C57Bl/6 mice; details: mouse, in vivo; remark: listed apart in the source
[16] = tested on: IL-1β; test: Mature IL-1β ELISA in mouse bone marrow derived primary macrophages; type: cell-based; details: alone or with MDP or BCG, caspase blockade with ZVAD-fmk
Procedure: C57Bl/6 mouse bone marrow derived primary macrophages were treated with SB 1A or SB 1B alone, MDP alone or in combination as indicated for 4 hrs. BCG was used for infection for 4 hrs and supernatants collected 18 hr later titrated for mature IL1β using ELISA. Macrophages were first treated with ZVAD-fmk (2 hrs) for caspase blockade followed by activation with SB 1A and SB 1B (4 hrs) and BCG infection (4 hrs). Cytokine was measured 18 hrs later.

COC1C(OP(=O)(S)OCC2OC(n3cnc4c(N)ncnc43)CC2O)C(CO)OC1n1ccc(=O)[nH]c1=O (mixture of isomers) [SB 40]
antigen presentation (Antigen-85B) in macrophages [1]: enhance antigen presentation in vitro
systemic exposure females versus males, largest difference ([2]; Day 14, 500 mg/kg dose groups): about twofold
Day 14 Cmax and AUClast values versus Day 1 ([2]; SB 40 in plasma, each dose of SB 44): higher than those on Day 1
dose relationship for Cmax and AUClast ([2]; SB 40 in plasma, male and female rats, Days 1 and 14): nonlinear dose relationship
phase II conjugative reactions [3]: no apparent evidence of any phase II conjugative reactions
IRF3 activation (IRF3-luciferase) [4]: induced IRF3 activation
surface expression of MHC-II [5]: increase MHC-II in MΦs
cytokine induction in human PBMC cultures [6]: did not cause cytokine induction
CC50 [7]: > 1000 µM
anti-TB T cell function of mice [8]: dramatic increase in anti-TB T cell function of mice
IRF3 activation mediated via NOD2 [9]: mediated via NOD2 activation
enhancement of ISG-56 expression over that induced by PolyI-PolyC [10]: 2 fold
IFN production in the presence of BCG [11]: modest augmentation of IFN production

COC1[C@@H](OP(=O)(OC[C@H]2O[C@@H](n3cnc4c(N)ncnc43)C[C@H]2O)SCOC(=O)OC(C)C)[C@@H](CO)O[C@H]1n1ccc(=O)[nH]c1=O (stereo partly drawn) [Compound 3]
CC50 at 24 h [12]: > 1000 µM

COC1C(OP(=O)(OCC2OC(n3cnc4c(N)ncnc43)CC2O)SCOC(=O)OC(C)C)C(CO)OC1n1ccc(=O)[nH]c1=O (stereo not drawn) [SB 1B]
antigen presentation (Antigen-85B) in macrophages [1]: enhance antigen presentation in vitro; also recorded: retain full activity
production of IFN-β [13]: results in production of IFN-β
IRF3 activation (IRF3-luciferase) [4]: induced IRF3 activation
surface expression of MHC-II [5]: increase MHC-II in MΦs
induction of responder genes RIG-I and NOD2 [14]: induction of responder genes RIG-I and NOD2
antigen specific CD8 / memory T cells in lungs of re-challenged mice [15]: boost the magnitude of antigen specific memory T cells; also recorded: induces a robust expansion of antigen specific CD8 T cells
protection against re-challenge of tuberculosis [15]: protects twice as better than BCG; also recorded: induce protection against re-challenge of tuberculosis in mice
recall response against re-challenge with tuberculosis [15]: retain the ability to mount a better recall response
Mtb counts of lungs [8]: reducing Mtb counts of lungs better than either BCG or MDP+BCG
Mtb counts of spleens [8]: better than BCG vaccine in reducing Mtb counts of spleens
adjuvant efficacy with BCG vaccine against tuberculosis [8]: more efficacious as an adjuvant than SB 44; also recorded: better than muramyl dipeptide (MDP) as adjuvants
anti-TB T cell function of mice [8]: dramatic increase in anti-TB T cell function of mice
numbers of multi-functional T cells [8]: enhances the numbers of multi-functional T cells compared to BCG vaccine
tetramer specific CD8 T cells [8]: comparable levels of tetramer specific CD8 T cells
IRF3 activation mediated via NOD2 [9]: mediated via NOD2 activation
induction of mature IL-1β [16]: induce IL-1β only in combination with either MDP or intact BCG bacilli

Source: patent US10391166B2, “Short oligonucleotides as vaccine adjuvants and therapeutic agents” (priority 2013, dated 2019)
